Data taken from PubChem BioAssay AID248 (DTP/NCI, 2004).
Values joined by “and” are separate entries in the source; they are usually repeats but may differ in a detail not shown here. Identical values can stand only once. Toxic doses and inconclusive results are not listed. Cut-off read from the data, not from the text of the source: active = T/C of 150% or more; inactive = T/C below 125%.

Test system: L1210 leukemia ip in BDF1 mice, survival T/C
Assay: NCI In Vivo Anticancer Drug Screen. Data for tumor model L1210 Leukemia (intraperitoneal) in B6D2F1 (BDF1) mice
Conditions: endpoint: mean survival time, higher = longer survival
Procedure, shortened: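 Tumor was transplanted into mice, which were then dosed with test compound or vehicle alone. Survival was recorded for each group, and the treated figure was expressed relative to the control figure.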

[1] = dose: 100.0 mg/kg/injection, schedule: Q04DX002 (ip), vehicle: Klucel (hydroxypropylcellulose) (HPC)
[2] = dose: 200.0 mg/kg/injection, schedule: Q04DX002 (ip), vehicle: Klucel (hydroxypropylcellulose) (HPC)
[3] = dose: 25.0 mg/kg/injection, schedule: Q01DX009 (ip), vehicle: Klucel (hydroxypropylcellulose) (HPC)
[4] = dose: 50.0 mg/kg/injection, schedule: Q01DX009 (ip), vehicle: Klucel (hydroxypropylcellulose) (HPC)
[5] = dose: 100.0 mg/kg/injection, schedule: Q01DX009 (ip), vehicle: Klucel (hydroxypropylcellulose) (HPC)
[6] = dose: 6.25 mg/kg/injection, schedule: Q01DX009 (ip), vehicle: Klucel (hydroxypropylcellulose) (HPC)
[7] = dose: 12.5 mg/kg/injection, schedule: Q01DX009 (ip), vehicle: Klucel (hydroxypropylcellulose) (HPC)
[8] = dose: 75.0 mg/kg/injection, schedule: Q01DX001 (ip), vehicle: saline
[9] = dose: 150.0 mg/kg/injection, schedule: Q01DX001 (ip), vehicle: saline
[10] = dose: 300.0 mg/kg/injection, schedule: Q01DX001 (ip), vehicle: saline
[11] = dose: 100.0 mg/kg/injection, schedule: Q04DX003 (ip), vehicle: saline with Tween-80
[12] = dose: 200.0 mg/kg/injection, schedule: Q04DX003 (ip), vehicle: saline with Tween-80
[13] = dose: 400.0 mg/kg/injection, schedule: Q04DX003 (ip), vehicle: saline with Tween-80
[14] = dose: 100.0 mg/kg/injection, schedule: Q01DX001 (ip), vehicle: saline
[15] = dose: 200.0 mg/kg/injection, schedule: Q01DX001 (ip), vehicle: saline
[16] = dose: 400.0 mg/kg/injection, schedule: Q01DX001 (ip), vehicle: saline
[17] = dose: 100.0 mg/kg/injection, schedule: Q04DX003 (ip), vehicle: saline
[18] = dose: 200.0 mg/kg/injection, schedule: Q04DX003 (ip), vehicle: saline
[19] = dose: 400.0 mg/kg/injection, schedule: Q04DX003 (ip), vehicle: saline

Measured: T/C

CCc1nc(NN)nc(CC)c1-c1ccccc1O
inactive: [1] 105 % of control | [2] 91 % of control

CSc1nc(Cl)cc(N2CC2C)n1 (centres undefined)
inactive: dose: 25.0 mg/kg/injection, schedule: Q01DX Z (ip), vehicle: methylcellulose (MC) 96 % of control

Cc1ccc(Nc2c3ccccc3nc3ccccc23)cc1C
inactive: [3] 94 % of control | [4] 91 % of control | [5] 102 % of control | [1] 100 % of control

COc1ccc(OC)c(N(CCN2C(=O)c3ccccc3C2=O)C(=O)CCl)c1
inactive: dose: 25.0 mg/kg/injection, schedule: Q04DX002 (ip), vehicle: Klucel (hydroxypropylcellulose) (HPC) 97 % of control | dose: 50.0 mg/kg/injection, schedule: Q04DX002 (ip), vehicle: Klucel (hydroxypropylcellulose) (HPC) 90 % of control | [1] 97 % of control and 91 % of control

CC(=O)CC(OC(=O)c1cc([N+](=O)[O-])cc([N+](=O)[O-])c1)(C(F)(F)F)C(F)(F)F
inactive: [6] 93 % of control | [7] 88 % of control | [3] 88 % of control

COC(=O)C[CH2][Pb]([c]1ccccc1)([c]1ccccc1)[c]1ccccc1
inactive: dose: 100.0 mg/kg/injection, schedule: Q04DX002 (ip), vehicle: saline with Tween-80 102 % of control | dose: 200.0 mg/kg/injection, schedule: Q04DX002 (ip), vehicle: saline with Tween-80 113 % of control

CN(CCc1cnc2nc(N)[nH]c(=O)c2n1)c1ccc(C(=O)O)cc1
inactive: [8] 90 % of control | [9] 95 % of control | [10] 94 % of control

O=C(CCNC(=O)OCc1ccccc1)NCC(=O)OCc1ccccc1
inactive: [11] 103 % of control | [12] 97 % of control | [13] 92 % of control

COc1cc(C(=O)O)cc(OC)n1
inactive: [11] 102 % of control | [12] 96 % of control | [13] 96 % of control

CC(c1ccccc1)C(C)(C#N)c1ccccc1 (centres undefined)
inactive: dose: 50.0 mg/kg/injection, schedule: Q01DX001 (ip), vehicle: saline 97 % of control | [14] 100 % of control | [15] 100 % of control | [16] 103 % of control

CCO/C=N/c1onc(C)c1C#N
inactive: dose: 100.0 mg/kg/injection, schedule: Q04DX003 (ip), vehicle: carboxymethylcellulose (CMC) 102 % of control | dose: 200.0 mg/kg/injection, schedule: Q04DX003 (ip), vehicle: carboxymethylcellulose (CMC) 100 % of control | dose: 400.0 mg/kg/injection, schedule: Q04DX003 (ip), vehicle: carboxymethylcellulose (CMC) 90 % of control

CC1CNC(=S)O1 (centres undefined)
inactive: dose: 50.0 mg/kg/injection, schedule: Q04DX003 (ip), vehicle: saline 96 % of control | [17] 98 % of control | [18] 101 % of control | [19] 108 % of control

Cc1ccccc1OCC(=O)Nc1cccc(NC(=O)COc2ccccc2C)c1
inactive: dose: 50.0 mg/kg/injection, schedule: Q04DX002 (sc), vehicle: olive oil, sesame oil, peanut oil 110 % of control | dose: 100.0 mg/kg/injection, schedule: Q04DX002 (sc), vehicle: olive oil, sesame oil, peanut oil 100 % of control | dose: 200.0 mg/kg/injection, schedule: Q04DX002 (sc), vehicle: olive oil, sesame oil, peanut oil 95 % of control

CC(=O)c1c(O)cc(C)c(Cl)c1C
inactive: [5] 94 % of control | dose: 200.0 mg/kg/injection, schedule: Q01DX009 (ip), vehicle: Klucel (hydroxypropylcellulose) (HPC) 100 % of control | dose: 400.0 mg/kg/injection, schedule: Q01DX009 (ip), vehicle: Klucel (hydroxypropylcellulose) (HPC) 103 % of control

COC(=O)c1ccc(=O)oc1
inactive: dose: 50.0 mg/kg/injection, schedule: Q01DX009 (ip), vehicle: gum acacia 105 % of control | dose: 100.0 mg/kg/injection, schedule: Q01DX009 (ip), vehicle: gum acacia 100 % of control | dose: 100.0 mg/kg/injection, schedule: Q04DX003 (ip), vehicle: gum acacia 98 % of control | dose: 200.0 mg/kg/injection, schedule: Q01DX009 (ip), vehicle: gum acacia 88 % of control | dose: 200.0 mg/kg/injection, schedule: Q04DX003 (ip), vehicle: gum acacia 100 % of control

CCOC(=O)CCc1cc(C)[nH]c1C(=O)OCC
inactive: dose: 100.0 mg/kg/injection, schedule: Q01DX001 (ip), vehicle: Klucel (hydroxypropylcellulose) (HPC) 93 % of control | dose: 100.0 mg/kg/injection, schedule: Q04DX003 (ip), vehicle: Klucel (hydroxypropylcellulose) (HPC) 101 % of control | dose: 200.0 mg/kg/injection, schedule: Q01DX001 (ip), vehicle: Klucel (hydroxypropylcellulose) (HPC) 93 % of control | dose: 200.0 mg/kg/injection, schedule: Q04DX003 (ip), vehicle: Klucel (hydroxypropylcellulose) (HPC) 96 % of control | dose: 400.0 mg/kg/injection, schedule: Q01DX001 (ip), vehicle: Klucel (hydroxypropylcellulose) (HPC) 101 % of control | dose: 400.0 mg/kg/injection, schedule: Q04DX003 (ip), vehicle: Klucel (hydroxypropylcellulose) (HPC) 98 % of control

CCC1=C(C)CC2c3cc(OC)c(OC)cc3CCN2C1 (centres undefined)
inactive: dose: 4.0 mg/kg/injection, schedule: Q04DX003 (ip), vehicle: water 110 % of control | dose: 8.0 mg/kg/injection, schedule: Q04DX003 (ip), vehicle: water 103 % of control | dose: 16.0 mg/kg/injection, schedule: Q04DX003 (ip), vehicle: water 104 % of control | dose: 32.0 mg/kg/injection, schedule: Q04DX003 (ip), vehicle: water 108 % of control | dose: 64.0 mg/kg/injection, schedule: Q04DX003 (ip), vehicle: water 106 % of control | [8] 103 % of control | [9] 94 % of control | [10] 101 % of control

O=C(n1ccnc1)C(F)(F)C(F)(F)C(F)(F)F
inactive: dose: 100.0 mg/kg/injection, schedule: Q01DX001 (ip), vehicle: saline sonified 101 % of control | [17] 96 % of control | dose: 200.0 mg/kg/injection, schedule: Q01DX001 (ip), vehicle: saline sonified 110 % of control | [18] 96 % of control | dose: 400.0 mg/kg/injection, schedule: Q01DX001 (ip), vehicle: saline sonified 106 % of control | [19] 89 % of control

CCCC(CNC(=O)OCC)(CNC(=O)OCC)c1ccccc1
inactive: dose: 100.0 mg/kg/injection, schedule: Q01DX001 (ip), vehicle: carboxymethylcellulose (CMC) 94 % of control | dose: 200.0 mg/kg/injection, schedule: Q01DX001 (ip), vehicle: carboxymethylcellulose (CMC) 94 % of control | dose: 400.0 mg/kg/injection, schedule: Q01DX001 (ip), vehicle: carboxymethylcellulose (CMC) 105 % of control

CCN1CC2c3cc(OC)c(OC)cc3CC(c3ccccc3)C2C1 (centres undefined)
inactive: dose: 12.5 mg/kg/injection, schedule: Q01DX009 (ip), vehicle: saline with Tween-80 98 % of control | dose: 25.0 mg/kg/injection, schedule: Q01DX009 (ip), vehicle: saline with Tween-80 95 % of control

C=CCc1ccccc1OCC(=O)O
inactive: [1] 91 % of control | [2] 95 % of control | dose: 400.0 mg/kg/injection, schedule: Q04DX002 (ip), vehicle: Klucel (hydroxypropylcellulose) (HPC) 104 % of control

COc1cc(C(=O)NNC(=O)C(=O)NNC(=O)c2cc(OC)c(OC)c(OC)c2)cc(OC)c1OC
inactive: [6] 95 % of control | [7] 96 % of control and 101 % of control | [3] 102 % of control | [4] 92 % of control and 98 % of control and 101 % of control | [5] 86 % of control

COC1CC(O)C(O)C(C)O1 (centres undefined)
inactive: [14] 93 % of control | dose: 100.0 mg/kg/injection, schedule: Q01DX009 (ip), vehicle: saline with Tween-80 100 % of control | [11] 91 % of control | [15] 96 % of control | dose: 200.0 mg/kg/injection, schedule: Q01DX009 (ip), vehicle: saline with Tween-80 91 % of control | [12] 108 % of control | [16] 98 % of control | dose: 400.0 mg/kg/injection, schedule: Q01DX009 (ip), vehicle: saline with Tween-80 89 % of control | [13] 100 % of control

Nc1ncc2[nH]c(I)nc2n1
inactive: dose: 5.0 mg/kg/injection, schedule: Q01DX001 (ip), vehicle: saline 98 % of control
